Tests used:
[1] = biological target: T1, androgen receptor (AR-LBD) (Rattus norvegicus, UniProt P15207); assay: Evaluation of androgen receptor affinity (PolarScreen Androgen Receptor Competitor Assay Kit, Red; fluorescence polarization); conditions: 22° C. for 5 hours, relative to binding rate of 1 μM DHT, read-out: AR affinity (pEC50) (converted)
T1 construct: 5 μL of 2×AR-LBD/Fluoromone AL Red Complex contained in the kit; purchased Invitrogen
T1 sequence (P15207 651-882 limits assumed): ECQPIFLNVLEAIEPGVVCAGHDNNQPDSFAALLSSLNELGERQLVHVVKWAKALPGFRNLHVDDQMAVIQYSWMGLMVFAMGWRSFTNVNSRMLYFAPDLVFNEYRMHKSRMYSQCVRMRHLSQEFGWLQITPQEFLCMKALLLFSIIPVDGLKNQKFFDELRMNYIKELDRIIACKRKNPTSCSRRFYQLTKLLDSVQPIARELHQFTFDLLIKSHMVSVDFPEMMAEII
Procedure, shortened: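 pEC50 values reflect tracer displacement from AR-LBD (Fluoromone AL Red complex) measured by fluorescence polarization after 5 h at 22° C, normalized to 1 μM DHT and fitted with a 4-parameter model.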

human androgen receptor = biological target: T2, human androgen receptor (Homo sapiens, UniProt P10275); assay: Reporter assay of an androgen receptor responsive sequence (luciferase, transiently transfected HEK293 cells); assay type: cell-based; conditions: 24 hours incubation, relative to activity of 100 nM DHT, read-out: AR transcriptive activity (pEC50) (converted)
T2 construct: expressed in transfected cells; host or cells: HEK293
T2 sequence (P10275 1-920): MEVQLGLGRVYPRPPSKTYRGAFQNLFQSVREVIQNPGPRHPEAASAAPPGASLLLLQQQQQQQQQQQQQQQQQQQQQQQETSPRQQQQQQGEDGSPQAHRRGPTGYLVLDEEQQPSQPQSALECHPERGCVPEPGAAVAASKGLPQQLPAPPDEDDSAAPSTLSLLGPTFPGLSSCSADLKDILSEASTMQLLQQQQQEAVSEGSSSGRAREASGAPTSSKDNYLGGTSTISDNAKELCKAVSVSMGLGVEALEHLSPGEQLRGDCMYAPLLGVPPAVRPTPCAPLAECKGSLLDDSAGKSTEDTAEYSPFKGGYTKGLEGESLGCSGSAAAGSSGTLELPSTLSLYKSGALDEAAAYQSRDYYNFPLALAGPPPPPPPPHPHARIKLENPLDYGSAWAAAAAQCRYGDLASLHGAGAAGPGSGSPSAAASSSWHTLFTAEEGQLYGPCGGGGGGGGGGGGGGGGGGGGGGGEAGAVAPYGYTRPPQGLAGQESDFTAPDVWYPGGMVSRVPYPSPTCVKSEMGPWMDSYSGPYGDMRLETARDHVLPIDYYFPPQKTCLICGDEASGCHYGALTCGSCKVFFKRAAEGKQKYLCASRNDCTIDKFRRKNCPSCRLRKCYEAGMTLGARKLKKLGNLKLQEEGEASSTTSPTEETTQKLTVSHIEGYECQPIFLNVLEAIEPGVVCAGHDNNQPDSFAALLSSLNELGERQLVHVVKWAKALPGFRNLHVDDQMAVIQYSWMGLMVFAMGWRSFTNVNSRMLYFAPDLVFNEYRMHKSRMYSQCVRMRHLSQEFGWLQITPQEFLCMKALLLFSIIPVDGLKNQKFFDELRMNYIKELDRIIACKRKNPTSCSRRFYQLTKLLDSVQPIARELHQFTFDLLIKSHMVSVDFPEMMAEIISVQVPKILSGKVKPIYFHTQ
Procedure, shortened: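 HEK293 cells transiently transfected for 3 h with ARE-firefly luciferase, full-length human AR and TK-Renilla plasmids, then exposed to compound for 24 h at 37 °C in 5% charcoal-treated FBS/DMEM. Dual-Glo luminescence read; pEC50 from 4-parameter fit relative to 100 nM DHT.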

Cc1sc(N(Cc2ccc(OCc3ccccc3)cc2)c2ccc(C#N)cc2)nc1C(=O)NS(C)(=O)=O [Compound 393, 2-[N-[(4-benzyloxyphenyl)methyl]-4-cyano-anilino]-5-methyl-N-methylsulfonyl-thiazole-4-carboxamide]
EC50 [1]: 31.6 nM
EC50 (human androgen receptor): 398 nM

COCCCS(=O)(=O)NC(=O)c1nc(N(Cc2ccc3ncsc3c2)c2ccc(C#N)cc2)sc1C [Example 195, 2-[N-(1,3-benzothiazol-6-ylmethyl)-4-cyano-anilino]-N-(3-methoxypropylsulfonyl)-5-methyl-thiazole-4-carboxamide]
EC50 [1]: 158 nM
EC50 (human androgen receptor): 126 nM

Cc1sc(N(C[C@@H]2CCCC[C@@H](O)C2)c2ccc(C#N)cc2)nc1C(=O)NS(C)(=O)=O (racemic) [Compound 474, 2-[4-cyano-N-[[trans-3-hydroxycycloheptyl]methyl]anilino]-5-methyl-N-methylsulfonyl-thiazole-4-carboxamide]
EC50 [1]: 794 nM
EC50 (human androgen receptor): 1000 nM

CCS(=O)(=O)NC(=O)c1nc(N(CCc2ccc(Cl)cc2)Cc2ccc(OC(F)(F)F)cc2)sc1C [Compound 701, 2-[2-(4-chlorophenyl)ethyl-[[4-(trifluoromethoxy)phenyl]methyl]amino]-N-ethylsulfonyl-5-methyl-thiazole-4-carboxamide]
EC50 [1]: 63.1 nM
EC50 (human androgen receptor): 1260 nM

COc1ccc(F)cc1CN(c1ccc(C#N)cc1)c1nc(C(=O)NS(C)(=O)=O)c(C)s1 [Compound 105, 2-[4-cyano-N-[(5-fluoro-2-methoxy-phenyl)methyl]anilino]-5-methyl-N-methylsulfonyl-thiazole-4-carboxamide]
EC50 [1]: 126 nM
EC50 (human androgen receptor): 316 nM

Cc1sc(N(Cc2cc3ccccc3cn2)c2ccc(C#N)cc2)nc1C(=O)NS(C)(=O)=O [Compound 529, 2-[4-cyano-N-(3-isoquinolylmethyl)anilino]-5-methyl-N-methylsulfonyl-thiazole-4-carboxamide]
EC50 [1]: 398 nM
EC50 (human androgen receptor): 316 nM

Cc1sc(N(Cc2ccc(C3CC3)nc2)c2ccc(C#N)cc2)nc1C(=O)NS(C)(=O)=O [Compound 593, 2-[4-cyano-N-[(6-cyclopropyl-3-pyridyl)methyl]anilino]-5-methyl-N-methylsulfonyl-thiazole-4-carboxamide]
EC50 [1]: 251 nM
EC50 (human androgen receptor): 200 nM

Cc1sc(N(Cc2ccc3occc3c2)c2ccc(C#N)cc2)nc1C(=O)NS(C)(=O)=O [Compound 26, 2-[N-(benzofuran-5-ylmethyl)-4-cyano-anilino]-5-methyl-N-methylsulfonyl-thiazole-4-carboxamide]
EC50 [1]: 63.1 nM
EC50 (human androgen receptor): 25.1 nM

Cc1sc(N(CCc2ccccc2F)Cc2ccccc2)nc1C(=O)NS(C)(=O)=O [Compound 339, 2-[benzyl-[2-(2-fluorophenyl)ethyl]amino]-5-methyl-N-methylsulfonyl-thiazole-4-carboxamide]
EC50 [1]: 39.8 nM
EC50 (human androgen receptor): 2000 nM

Cc1sc(N(CCC2CCCCC2)Cc2ccc(OC(F)(F)F)cc2)nc1C(=O)NS(=O)(=O)C1CC1 [Compound 734, 2-[2-cyclohexylethyl-[[4-(trifluoromethoxy)phenyl]methyl]amino]-N-cyclopropylsulfonyl-5-methyl-thiazole-4-carboxamide]
EC50 [1]: 1000 nM
EC50 (human androgen receptor): > 10000 nM

CCOC(=O)CS(=O)(=O)NC(=O)c1nc(N(Cc2ccccc2)c2ccc(C#N)cc2)sc1C [Compound 384, ethyl 2-[[2-(N-benzyl-4-cyano-anilino)-5-methyl-thiazole-4-carbonyl]sulfamoyl]acetate]
EC50 [1]: 39.8 nM
EC50 (human androgen receptor): 251 nM

CS(=O)(=O)NC(=O)c1nc(N(Cc2ccc(OC(F)F)cc2)c2ccc(C#N)cc2)sc1Cl [Example 277, 5-chloro-2-[4-cyano-N-[[4-(difluoromethoxy)phenyl]methyl]anilino]-N-methylsulfonyl-thiazole-4-carboxamide]
EC50 [1]: 63.1 nM
EC50 (human androgen receptor): 50.1 nM

Cc1sc(N(Cc2cnc(C(F)(F)F)cn2)c2ccc(C#N)cc2)nc1C(=O)NS(C)(=O)=O [Compound 537, 2-[4-cyano-N-[[5-(trifluoromethyl)pyrazin-2-yl]methyl]anilino]-5-methyl-N-methylsulfonyl-thiazole-4-carboxamide]
EC50 [1]: 316 nM
EC50 (human androgen receptor): 631 nM

Cc1sc(N(CC[C@@H]2CCCC[C@@H]2O)c2ccc(C#N)cc2)nc1C(=O)NS(C)(=O)=O (racemic) [Compound 409, 2-[4-cyano-N-[2-[cis-2-hydroxycyclohexyl]ethyl]anilino]-5-methyl-N-methylsulfonyl-thiazole-4-carboxamide]
EC50 [1]: 251 nM
EC50 (human androgen receptor): 251 nM

CCS(=O)(=O)NC(=O)c1nc(N(CCC2CCCCC2)Cc2ccc(Cl)cc2)sc1C [Compound 729, 2-[(4-chlorophenyl)methyl-(2-cyclohexylethyl)amino]-N-ethylsulfonyl-5-methyl-thiazole-4-carboxamide]
EC50 [1]: 126 nM
EC50 (human androgen receptor): 5010 nM

COCCCS(=O)(=O)NC(=O)c1nc(N(Cc2ncc(C(F)(F)F)cc2F)c2ccc(C#N)cc2)sc1C [Example 171, 2-[4-cyano-N-[[3-fluoro-5-(trifluoromethyl)-2-pyridyl]methyl]anilino]-N-(3-methoxypropylsulfonyl)-5-methyl-thiazole-4-carboxamide]
EC50 [1]: 126 nM
EC50 (human androgen receptor): 631 nM

COc1ccc(CCN(c2ccc(C#N)cc2)c2nc(C(=O)NS(C)(=O)=O)c(C)s2)cc1 [Compound 400, 2-[4-cyano-N-[2-(4-methoxyphenyl)ethyl]anilino]-5-methyl-N-methylsulfonyl-thiazole-4-carboxamide]
EC50 [1]: 631 nM
EC50 (human androgen receptor): > 10000 nM

Cc1sc(N(Cc2ccc3ccccc3c2)c2ccc(C#N)cc2)nc1C(=O)NS(C)(=O)=O [Compound 25, 2-[4-cyano-N-(2-naphthylmethyl)anilino]-5-methyl-N-methylsulfonyl-thiazole-4-carboxamide]
EC50 [1]: 25.1 nM
EC50 (human androgen receptor): 50.1 nM

Cc1sc(N(Cc2ccc(-c3ccccc3F)cc2)c2ccc(C#N)cc2)nc1C(=O)NS(C)(=O)=O [Compound 590, 2-[4-cyano-N-[[4-(2-fluorophenyl)phenyl]methyl]anilino]-5-methyl-N-methylsulfonyl-thiazole-4-carboxamide]
EC50 [1]: 31.6 nM
EC50 (human androgen receptor): 158 nM

CS(=O)(=O)NC(=O)c1nc(N(Cc2ccc(F)cc2)c2ccc(C(F)(F)F)nc2)sc1Br [Example 282, 5-bromo-2-[(4-fluorophenyl)methyl-[6-(trifluoromethyl)-3-pyridyl]amino]-N-methylsulfonyl-thiazole-4-carboxamide]
EC50 [1]: 39.8 nM
EC50 (human androgen receptor): 316 nM

Cc1sc(N(Cc2ncc(F)cc2Cl)c2ccc(C#N)cc2)nc1C(=O)NS(C)(=O)=O [Example 179, 2-[N-[(3-chloro-5-fluoro-2-pyridyl)methyl]-4-cyano-anilino]-5-methyl-N-methylsulfonyl-thiazole-4-carboxamide]
EC50 [1]: 501 nM
EC50 (human androgen receptor): 1000 nM

Cc1sc(N(CCC2CCCCC2)Cc2ccc(OC(F)(F)F)cc2)nc1C(=O)NS(C)(=O)=O [Compound 732, 2-[2-cyclohexylethyl-[[4-(trifluoromethoxy)phenyl]methyl]amino]-5-methyl-N-methylsulfonyl-thiazole-4-carboxamide]
EC50 [1]: 100 nM
EC50 (human androgen receptor): > 10000 nM

Cc1sc(N(Cc2ccccc2)c2ccc(OC(F)(F)F)cc2)nc1C(=O)NS(C)(=O)=O [Compound 34, 2-[N-benzyl-4-(trifluoromethoxy)anilino]-5-methyl-N-methylsulfonyl-thiazole-4-carboxamide]
EC50 [1]: 63.1 nM
EC50 (human androgen receptor): 3160 nM

Cc1oc(N(CCc2ccc(C#N)cc2)Cc2ccc(C(F)(F)F)nc2)nc1C(=O)NS(C)(=O)=O [Compound 555, 2-[2-(4-cyanophenyl)ethyl-[[6-(trifluoromethyl)-3-pyridyl]methyl]amino]-5-methyl-N-methylsulfonyl-oxazole-4-carboxamide]
EC50 [1]: 316 nM
EC50 (human androgen receptor): 5010 nM
